Patent US20240208992A1, “MACROCYCLES AS CFTR MODULATORS” (Idorsia Pharmaceuticals Ltd, priority 2021, published 2024)

Molecular target: human F508del-CFTR (Homo sapiens, UniProt P13569, DEL508-508)
Assay: F508del-CFTR cell surface expression (corrector activity), DiscoveRx ß-galactosidase complementation chemiluminescence assay in recombinant U2OS cell line;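 further: U2OS cells co-expressing ProLink-tagged F508del-CFTR and a membrane-anchored enzyme acceptor, where more surface CFTR restores β-galactosidase activity measured by chemiluminescence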
Settings: U2OS cell line, 16h compound incubation; for EC50: EC50, F508del-CFTR cell surface expression, geomean values; for Emax: in relation to the Emax of the corrector lumacaftor (=100%), arithmetic mean values

Sequence of human F508del-CFTR (P13569 with tags, fused parts or gaps DEL508-508): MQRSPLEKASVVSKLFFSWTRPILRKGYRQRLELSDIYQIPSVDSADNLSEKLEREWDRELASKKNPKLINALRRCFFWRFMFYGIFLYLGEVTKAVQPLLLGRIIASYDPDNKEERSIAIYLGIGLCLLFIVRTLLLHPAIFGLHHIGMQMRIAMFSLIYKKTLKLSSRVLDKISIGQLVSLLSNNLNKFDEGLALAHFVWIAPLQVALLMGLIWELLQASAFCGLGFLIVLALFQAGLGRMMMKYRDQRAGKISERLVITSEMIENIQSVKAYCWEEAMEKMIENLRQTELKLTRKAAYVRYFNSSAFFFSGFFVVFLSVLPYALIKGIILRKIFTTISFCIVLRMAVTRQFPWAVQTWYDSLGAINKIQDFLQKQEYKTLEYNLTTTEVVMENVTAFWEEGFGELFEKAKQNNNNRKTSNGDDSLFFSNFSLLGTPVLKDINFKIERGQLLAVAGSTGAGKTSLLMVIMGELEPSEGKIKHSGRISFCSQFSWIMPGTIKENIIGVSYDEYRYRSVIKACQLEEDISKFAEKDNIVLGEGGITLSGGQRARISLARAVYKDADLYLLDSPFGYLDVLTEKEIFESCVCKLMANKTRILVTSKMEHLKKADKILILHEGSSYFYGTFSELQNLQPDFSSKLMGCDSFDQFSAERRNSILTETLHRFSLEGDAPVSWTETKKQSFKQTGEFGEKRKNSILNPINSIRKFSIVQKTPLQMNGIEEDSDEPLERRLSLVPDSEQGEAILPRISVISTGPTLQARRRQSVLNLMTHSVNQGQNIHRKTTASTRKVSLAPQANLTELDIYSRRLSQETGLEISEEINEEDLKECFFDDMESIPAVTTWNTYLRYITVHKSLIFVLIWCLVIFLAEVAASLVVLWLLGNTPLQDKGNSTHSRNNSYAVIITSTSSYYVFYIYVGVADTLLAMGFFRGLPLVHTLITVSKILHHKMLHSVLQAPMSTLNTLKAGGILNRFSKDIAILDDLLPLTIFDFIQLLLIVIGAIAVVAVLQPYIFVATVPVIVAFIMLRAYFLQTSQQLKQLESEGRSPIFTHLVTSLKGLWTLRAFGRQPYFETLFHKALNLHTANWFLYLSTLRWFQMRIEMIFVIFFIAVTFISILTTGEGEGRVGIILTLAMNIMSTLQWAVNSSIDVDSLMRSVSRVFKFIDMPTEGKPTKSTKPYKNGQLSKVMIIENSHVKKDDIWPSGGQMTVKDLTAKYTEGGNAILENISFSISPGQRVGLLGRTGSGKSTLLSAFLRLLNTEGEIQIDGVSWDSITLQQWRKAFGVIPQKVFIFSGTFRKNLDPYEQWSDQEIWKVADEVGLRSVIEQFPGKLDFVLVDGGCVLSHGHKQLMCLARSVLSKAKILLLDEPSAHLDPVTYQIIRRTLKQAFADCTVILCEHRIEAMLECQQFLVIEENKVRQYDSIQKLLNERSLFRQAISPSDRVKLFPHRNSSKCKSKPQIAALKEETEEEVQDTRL

Row | EC50 | Emax (U2OS) | Emax | Compound
1 | 544 nM | 277% |  | Cc1nc(CCNC(=O)[C@@H]2CC(=O)N(C)[C@@H](CC(C)C)C(=O)N3CCCC[C@@H]3C(=O)N[C@H](Cc3ccccc3)COc3cnc4ccccc4c3C(=O)N2)no1 [Example 78, (9S,13S,19aR,22R)-22-benzyl-13-isobutyl-12-methyl-N-(2-(5-methyl-1,2,4-oxadiazol-3-yl)ethyl)-7,11,14,20-tetraoxo-7,8,9,10,11,12,13,14,17,18,19,19a,20,21,22,23-hexadecahydro-16H-pyrido[2′,1′:6,7][1]oxa[4,7,10,14]tetraazacycloheptadecino[17,16-c]quinoline-9-carboxamide]
2 | 327 nM | 296% |  | CCc1nc(CCNC(=O)[C@@H]2CC(=O)N(C)[C@@H](CC(C)C)C(=O)N3CCCC[C@@H]3C(=O)N[C@H](Cc3ccccc3)COc3cnc4ccccc4c3C(=O)N2)no1 [Example 79, (9S,13S,19aR,22R)-22-benzyl-N-(2-(5-ethyl-1,2,4-oxadiazol-3-yl)ethyl)-13-isobutyl-12-methyl-7,11,14,20-tetraoxo-7,8,9,10,11,12,13,14,17,18,19,19a,20,21,22,23-hexadecahydro-16H-pyrido[2′,1′:6,7][1]oxa[4,7,10,14]tetraazacycloheptadecino[17,16-c]quinoline-9-carboxamide]
3 | 233 nM | 232% |  | COc1cccc(CCNC(=O)[C@@H]2CC(=O)N(C)[C@@H](CC(C)C)C(=O)N3CCCC[C@@H]3C(=O)N[C@H](Cc3ccccc3)COc3cnc4ccccc4c3C(=O)N2)c1OC [Example 81, (9S,13S,19aR,22R)-22-benzyl-N-(2,3-dimethoxyphenethyl)-13-isobutyl-12-methyl-7,11,14,20-tetraoxo-7,8,9,10,11,12,13,14,17,18,19,19a,20,21,22,23-hexadecahydro-16H-pyrido[2′,11:6,7][1]oxa[4,7,10,14]tetraazacycloheptadecino[17,16-c]quinoline-9-carboxamide]
4 | 598 nM | 246% |  | Cc1oncc1CCNC(=O)[C@@H]1CC(=O)N(C)[C@@H](CC(C)C)C(=O)N2CCCC[C@@H]2C(=O)N[C@H](Cc2ccccc2)COc2cnc3ccccc3c2C(=O)N1 [Example 82, (9S,13S,19aR,22R)-22-benzyl-13-isobutyl-12-methyl-N-(2-(5-methylisoxazol-4-yl)ethyl)-7,11,14,20-tetraoxo-7,8,9,10,11,12,13,14,17,18,19,19a,20,21,22,23-hexadecahydro-16H-pyrido[2′,1′:6,7][1]oxa[4,7,10,14]tetraazacycloheptadecino[17,16-c]quinoline-9-carboxamide]
5 | 731 nM | 309% |  | CC(C)C[C@H]1C(=O)N2CCCC[C@@H]2C(=O)N[C@H](Cc2ccccc2)COc2cnc3ccccc3c2C(=O)N[C@H](C(=O)NCCc2cnn(C)c2)CC(=O)N1C [Example 83, (9S,13S,19aR,22R)-22-benzyl-13-isobutyl-12-methyl-N-(2-(1-methyl-1H-pyrazol-4-yl)ethyl)-7,11,14,20-tetraoxo-7,8,9,10,11,12,13,14,17,18,19,19a,20,21,22,23-hexadecahydro-16H-pyrido[2′,11:6,7][1]oxa[4,7,10,14]tetraazacycloheptadecino[17,16-c]quinoline-9-carboxamide]
6 | 162 nM | 190% |  | CC(C)C[C@H]1C(=O)N2CCCC[C@@H]2C(=O)N[C@H](Cc2ccccc2)COc2cnc3ccccc3c2C(=O)N[C@H](C(=O)NCCc2nc(-c3ccccc3OC(F)(F)F)no2)CC(=O)N1C [Example 87, (9S,13S,19aR,22R)-22-benzyl-13-isobutyl-12-methyl-7,11,14,20-tetraoxo-N-(2-(3-(2-(trifluoromethoxy)phenyl)-1,2,4-oxadiazol-5-yl)ethyl)-7,8,9,10,11,12,13,14,17,18,19,19a,20,21,22,23-hexadecahydro-16H-pyrido[2′,1′:6,7][1]oxa[4,7,10,14]tetraazacycloheptadecino[17,16-c]quinoline-9-carboxamide]
7 | 230 nM | 112% |  | CC(C)C[C@H]1C(=O)N2CCCC[C@@H]2C(=O)N[C@H](Cc2ccccc2)COc2cnc3ccccc3c2C(=O)N[C@H](C(=O)NCCc2nnc(-c3ccccc3OC(F)(F)F)[nH]2)CC(=O)N1C [Example 88, (9S,13S,19aR,22R)-22-benzyl-13-isobutyl-12-methyl-7,11,14,20-tetraoxo-N-(2-(5-(2-(trifluoromethoxy)phenyl)-4H-1,2,4-triazol-3-yl)ethyl)-7,8,9,10,11,12,13,14,17,18,19,19a,20,21,22,23-hexadecahydro-16H-pyrido[2′,1′:6,7][1]oxa[4,7,10,14]tetraazacycloheptadecino[17,16-c]quinoline-9-carboxamide]
8 | 364 nM |  | 129% | CC(C)C[C@H]1C(=O)N2CCCC[C@@H]2C(=O)N[C@H](Cc2ccccc2)COc2cnc3ccccc3c2C(=O)N[C@H](C(=O)NCCc2cc(C(C)(C)C)on2)CC(=O)N1C [Example 90, (9S,13S,19aS,22R)-22-benzyl-N-(2-(5-(tert-butyl)isoxazol-3-yl)ethyl)-13-isobutyl-12-methyl-7,11,14,20-tetraoxo-7,8,9,10,11,12,13,14,17,18,19,19a,20,21,22,23-hexadecahydro-16H-pyrido[2′,1′:6,7][1]oxa[4,7,10,14]tetraazacycloheptadecino[17,16-c]quinoline-9-carboxamide]
9 | 466 nM | 210% |  | COc1cc(CCNC(=O)[C@@H]2CC(=O)N(C)[C@@H](CC(C)C)C(=O)N3CCCC[C@@H]3C(=O)N[C@H](Cc3ccccc3)COc3cnc4ccccc4c3C(=O)N2)ccc1F [Example 91, (9S,13S,19aR,22R)-22-benzyl-N-(4-fluoro-3-methoxyphenethyl)-13-isobutyl-12-methyl-7,11,14,20-tetraoxo-7,8,9,10,11,12,13,14,17,18,19,19a,20,21,22,23-hexadecahydro-16H-pyrido[2′,1′:6,7][1]oxa[4,7,10,14]tetraazacycloheptadecino[17,16-c]quinoline-9-carboxamide]

More lines, now with the values behind:

Row | Compound | EC50 | Emax (U2OS) | Emax
10 | CC(C)C[C@H]1C(=O)N2CCCC[C@@H]2C(=O)N[C@H](Cc2ccccc2)COc2cnc3ccccc3c2C(=O)N[C@H](C(=O)NCCc2ccccc2)CC(=O)N1C [Example 77, (9S,13S,19aR,22R)-22-benzyl-13-isobutyl-12-methyl-7,11,14,20-tetraoxo-N-phenethyl-7,8,9,10,11,12,13,14,17,18,19,19a,20,21,22,23-hexadecahydro-16H-pyrido[2′,1′:6,7][1]oxa[4,7,10,14]tetraazacycloheptadecino[17,16-c]quinoline-9-carboxamide] | 231 nM | 237% | 
11 | CC(C)C[C@H]1C(=O)N2CCCC[C@@H]2C(=O)N[C@H](Cc2ccccc2)COc2cnc3ccccc3c2C(=O)N[C@H](C(=O)NCCc2noc(C3CC3)n2)CC(=O)N1C [Example 80, (9S,13S,19aR,22R)-22-benzyl-N-(2-(5-cyclopropyl-1,2,4-oxadiazol-3-yl)ethyl)-13-isobutyl-12-methyl-7,11,14,20-tetraoxo-7,8,9,10,11,12,13,14,17,18,19,19a,20,21,22,23-hexadecahydro-16H-pyrido[2′,1′:6,7][1]oxa[4,7,10,14]tetraazacycloheptadecino[17,16-c]quinoline-9-carboxamide] | 170 nM | 308% | 
12 | COc1ccc(CCNC(=O)[C@@H]2CC(=O)N(C)[C@@H](CC(C)C)C(=O)N3CCCC[C@@H]3C(=O)N[C@H](Cc3ccccc3)COc3cnc4ccccc4c3C(=O)N2)cc1 [Example 84, (9S,13S,19aR,22R)-22-benzyl-13-isobutyl-N-(4-methoxyphenethyl)-12-methyl-7,11,14,20-tetraoxo-7,8,9,10,11,12,13,14,17,18,19,19a,20,21,22,23-hexadecahydro-16H-pyrido[2′,1′:6,7][1]oxa[4,7,10,14]tetraazacycloheptadecino[17,16-c]quinoline-9-carboxamide] | 274 nM | 299% | 
13 | CC(C)C[C@H]1C(=O)N2CCCC[C@@H]2C(=O)N[C@H](Cc2ccccc2)COc2cnc3ccccc3c2C(=O)N[C@H](C(=O)NCCc2noc(C(C)(C)C)n2)CC(=O)N1C [Example 85, (9S,13S,19aR,22R)-22-benzyl-N-(2-(5-(tert-butyl)-1,2,4-oxadiazol-3-yl)ethyl)-13-isobutyl-12-methyl-7,11,14,20-tetraoxo-7,8,9,10,11,12,13,14,17,18,19,19a,20,21,22,23-hexadecahydro-16H-pyrido[2′,1′:6,7][1]oxa[4,7,10,14]tetraazacycloheptadecino[17,16-c]quinoline-9-carboxamide] | 260 nM | 244% | 
14 | Cc1cc(C)cc(-c2noc(CCNC(=O)[C@@H]3CC(=O)N(C)[C@@H](CC(C)C)C(=O)N4CCCC[C@@H]4C(=O)N[C@H](Cc4ccccc4)COc4cnc5ccccc5c4C(=O)N3)n2)c1 [Example 86, (9S,13S,19aR,22R)-22-benzyl-N-(2-(3-(3,5-dimethylphenyl)-1,2,4-oxadiazol-5-yl)ethyl)-13-isobutyl-12-methyl-7,11,14,20-tetraoxo-7,8,9,10,11,12,13,14,17,18,19,19a,20,21,22,23-hexadecahydro-16H-pyrido[2′,1′:6,7][1]oxa[4,7,10,14]tetraazacycloheptadecino[17,16-c]quinoline-9-carboxamide] | 314 nM | 157% | 
15 | CC(C)C[C@H]1C(=O)N2CCCC[C@@H]2C(=O)N[C@H](Cc2ccccc2)COc2cnc3ccccc3c2C(=O)N[C@H](C(=O)NCCc2cc(C(C)(C)C)on2)CC(=O)N1C [Example 89, (9S,13S,19aR,22R)-22-benzyl-N-(2-(5-(tert-butyl)isoxazol-3-yl)ethyl)-13-isobutyl-12-methyl-7,11,14,20-tetraoxo-7,8,9,10,11,12,13,14,17,18,19,19a,20,21,22,23-hexadecahydro-16H-pyrido[2′,1′:6,7][1]oxa[4,7,10,14]tetraazacycloheptadecino[17,16-c]quinoline-9-carboxamide] | 132 nM |  | 262%
